Assay results taken from patent US10858384B2, “Synthetic molecule constructs” (KODE BIOTECH LIMITED, priority 2004, dated 2020).

Legend:
[1] = system: endometrial cells and embryos; assay: Attachment of transformed endometrial cells to modified embryos; assay type: cell-based; details: 15 minutes at 37° C.
Protocol: Modified embryos (BioG-Avidin-BioIgG^B and BioG-Avidin-BioIgM^A) were prepared in accordance with the methods described in the specification accompanying the international application no. PCT/NZ03/00059 (published as WO03/087346).
Two concave glass slides were prepared, one with two wells of synthetic glycolipid Atri-sp-Ad-DOPE (I) inserted endometrial cells and the other with two wells of synthetic glycolipid Btri-sp-Ad-DOPE (VI) inserted endometrial cells.
The embryos were surrounded with endometrial cells. The wells were covered with mineral oil and incubated for 15 minutes at 37° C. Using a wide bore handling pipette each group of embryos were carefully transferred to a fresh drop of M2 media. The embryos were gently washed. The embryos were gently transferred into 2 μL of M2 media on a marked microscope slide. Each drop was overlaid with mineral oil
Under a central plane of focus on an Olympus microscope the number of endometrial cells adhered to the embryos in each group was assessed. The number of cells adhered to each embryo was recorded.

RBCs [2] = assay: Evaluation of insertion of different lipid tails by agglutination with the relevant antisera; assay type: cell-based; set-up: scale not given here; details: second series
Text: Transformation of RBCs with synthetic glycolipids with different lipid tails was first evaluated (Tables 22 and 24).

RBCs [3] = assay: Insertion efficiency: post-transformation solutions concentrated 20x, Diamed serology; assay type: cell-based; details: post-transformation solution concentrated 20×, from 0.60 mg/mL
Protocol: In addition, the post-transformation solutions were concentrated 20× and compared in parallel with the transformation solutions of known concentration. Only the post-transformation solutions derived from the 0.08 mg/mL Atri-sp-Ad-DOPE (I) and 0.6 mg/mL Btri-sp-Ad-DOPE (VI) solutions were tested.
Post-transformation solutions (20 μL) were dialysed (pore size 500 Da) against de-ionised water for 2 days. The samples were left to dry in a fumehood for 10 days. At the end of this time they were transferred into a rotavapor flask and set on the rotavapor to rotate under vacuum with no heat overnight. Samples were dried in a water bath at 40° C. and washed over into smaller vessels with chloroform-methanol 2:1 leaving significant amounts of dried cellular material. The chloroform-methanol 2:1 washings were dried down, washed over again into test-tubes with chloroform-methanol 2:1 and dried down. These samples were redissolved in 1 mL of 1× PBS and used for transformation experiments. The cellular material in the bottom of the flasks was washed out with water into another set of tubes.
The post-transformation solutions (from Atri-sp-Ad-DOPE (I) at 0.08 mg/mL and Btri-sp-Ad-DOPE (VI) at 0.6 mg/mL, 20 μL) were added to washed, packed RBCs (60 μL). […]

[4] = system: group O red blood cells (RBCs); assay: Tube serology of group O RBCs transformed at 37° C. with synthetic glycolipids; assay type: cell-based, human; details: 0.25 mg/mL, Day 44
Protocol: (§1) Washed packed group O red blood cells (RBCs) (3 parts by volume) and the synthetic glycolipid solution (1 part by volume, varying concentrations) were added to an eppendorf tube. The tube was incubated in a 37° C. waterbath for one hour, mixing every 15 minutes. […]
(§2) Tube serology and Diamed gel-card results for RBCs transformed with the different synthetic molecule constructs are provided in Table 38. Results for the stability of the RBCs transformed with the different synthetic glycolipids at different concentrations are provided in Tables 39 to 44.

[5] = Solubility of synthetic glycolipids in hot PBS; assay type: physicochemical; details: hot PBS
Text: In the context of this description the phrase “water soluble” means a stable, single phase system is formed when the synthetic molecule construct is contacted with water or saline (such as PBS) in the absence of organic solvents or detergents, and the term “solution” has a corresponding meaning.
For use in the transformation of cells the first criterion that synthetic glycolipids must satisfy is that they are soluble in aqueous solvents, e.g. phosphate buffered saline.
Initial tests on the molecules were to establish solubility and thus eliminate those molecules that were unsuitable for use in the transformation of cells.

embryos = assay: Embryo modification, test for insertion by fluorescence; assay type: cell-based
Protocol: The embryo zona pellucida was removed by treating embryos with 0.5% pronase in a 37° C. oven for 6 minutes or until all zonas were removed. Micro-drops were prepared by adding 5 μl of synthetic glycolipid Atri-sp-Ad-DOPE (I) or Btri-sp-Ad-DOPE (VI), at a concentration of 1 mg/mL to a 45 μl drop of M2 media overlaid with mineral oil. All embryo groups were incubated in the 50 μl micro-drops for 1 hour at 37° C. Embryos from experimental and control groups were washed 3× with M2 media.
Embryos from experimental and control groups were placed into a micro-drop of corresponding antibody and incubated for 30 min at 37° C. Embryos from experimental and control groups were washed 3× with M2 media.
Embryos from all experimental and control groups were placed into micro-drops of anti-mouse Ig FITC (1:50 dilution anti-mouse Ig FITC in M2) and incubated for 30 min at 37° C. Embryos from experimental and control groups were washed 3× with M2 media. Embryos were mounted on microscope slides in a 5 μl drop of M2 and the drops overlaid with oil.
The slides were viewed under a fluorescence microscope.

RBCs [6] = assay: Insertion efficiency: post-transformation supernatant solutions, tube serology; assay type: cell-based
Protocol: The post-transformation supernatant solutions (from Atri-sp-Ad-DOPE (I) at 0.08 mg/mL, 0.05 mg/mL and 0.03 mg/mL, and Btri-sp-Ad-DOPE (VI) at 0.6 mg/mL, 20 μL) were added neat and in a 1:2 dilution to washed, packed RBCs (60 μL). The tubes were incubated in a 37° C. waterbath for one hour, with mixing taking place every 15 minutes.
The transformed RBCs were washed 3× with PBS and then suspended in Cellstab™ at the appropriate concentration for serology testing.

[7] = system: group O red blood cells (RBCs); assay: Diamed gel-card agglutination of group O RBCs transformed at 37° C. with synthetic glycolipids; assay type: cell-based, human; set-up: scale not given here; details: 0.25 mg/mL; Day 116; Cellstab
Protocol: as §1, §2

RBCs [8] = assay: Detectable transformation ability of synthetic glycolipids (agglutination); assay type: cell-based; details: agglutination with the appropriate antibody
Text: The synthetic glycolipid must also be able to insert into the membrane and be recognisable to the appropriate antibody for transformation to be detected by agglutination. Initial tests on the molecules were to establish solubility and thus eliminate those molecules that were unsuitable for use in the transformation of cells.

## CCCCCCCC/C=C\CCCCCCCC(=O)OC[C@H](COP(=O)(O)OCCNC(=O)CCCCC(=O)NCCCO[C@@H]1O[C@H](CO)[C@H](O)[C@H](O[C@H]2O[C@H](CO)[C@H](O)[C@H](O)[C@H]2O)[C@H]1O[C@@H]1O[C@@H](C)[C@@H](O)[C@@H](O)[C@@H]1O)OC(=O)CCCCCCC/C=C\CCCCCCCC [Btri-sp-Ad-DOPE (VI)]
[1]; embryos modified with BioG-Avidin-BioIgG^B
  Average number of endometrial cells attached to modified embryos: 6.7
[1]; embryos modified with BioG-Avidin-BioIgM^A
  Average number of endometrial cells attached to modified embryos: 3.4
RBCs [2]; 60 μg/mL, Alba anti-B
  Agglutination score: 0
RBCs [2]; 60 μg/mL, Bio anti-B
  Agglutination score: 0
RBCs [2]; 125 μg/mL, Alba anti-B
  Agglutination score: 0
RBCs [2]; 125 μg/mL, Bio anti-B
  Agglutination score: 0
RBCs [3]
  Score (Diamed serology): 0
[4]; Alsevers
  Agglutination, manual tube serology, Bioclone anti-B: w+
[4]; Cellstab
  Agglutination, manual tube serology, Bioclone anti-B: ^‡
[5]
  Water solubility: Yes
embryos; 1 mg/mL stock in micro-drop, 1 hour 37° C.
  Transformation of embryos visualised by fluorescence: negative result
embryos; embryos, inserted antigen 1 mg/mL, 1 hour at 37° C., 1° antibody Anti-B Bioclone, anti-mouse Ig FITC 1:50
  Fluorescence score after incubation with IgFITC Probe: 0
RBCs [6]; 1:2, pre-trans conc 0.60 mg/mL
  Score (tube serology): 0
RBCs [6]; neat, pre-trans conc 0.60 mg/mL
  Score (tube serology): vw+
[7]
  Agglutination, Diamed gel-cards, Albaclone anti-B: 0
RBCs [8]
  Detectable transformation ability: Yes
